The values that follow come from patent US20230051694A1, “POLYPEPTIDE FRAGMENT B (MP-B) AND USE THEREOF” (SHANGHAI LONGXIN BIOMEDICAL TECHNOLOGY CO., LTD., priority 2021, published 2023).

This test relates to DSS-induced IBD in mice. The test is described as follows: Intervention effect on DSS-induced acute IBD mouse model. The note with it: DSS 2.5 wt % induced acute IBD mice, 50 μg/kg intragastric; for colonic histopathologic score / colon length: 7 days pre-administration then daily with DSS, x±SD; for colonic histopathologic score: HE staining; for colon length: in cm (unit assumed). It counts as in vivo, Male C57BL6 mice. As to the method: The administration of a DSS solution with a specified concentration to mice can induce an acute IBD model characterized by diarrhea, hematochezia, ulcer, and granulocyte infiltration. Mice were randomly grouped according to body weights of the mice. 40 healthy male C57BL6 mice were divided into four groups each with 10 mice:
blank control group: the mice were each intragastrically administered with water every day at a volume of 0.4 mL/20 g;
model group: the mice were each intragastrically administered with a DSS aqueous solution of a mass fraction of 2.5 wt % consecutively for 7 days, where the DSS aqueous solution was freshly prepared and changed every day;
MIMP positive control group: the mice were each given a pre-administration process for one week, that is, the mice were each intragastrically administered with an MIMP solution of a mass fraction of 50 μg/kg for the first 7 days, and then from day 8, the mice were each intragastrically administered with a DSS aqueous solution of a mass fraction of 2.5 wt % (at a volume of 0.4 mL/20 g) and an MIMP solution of a mass fraction of 50 μg/kg (at a volume of 0.4 mL/20 g) every day; and
MP-B experimental group: the mice were each given a pre-administration process for one week, that is, the mice were each intragastrically administered with an MP-B solution of a mass fraction of 50 μg/kg for the first 7 days, and from day 8, the mice were each intragastrically administered with a DSS aqueous solution of a mass fraction of 2.5 wt % (at a volume of 0.4 mL/20 g) and an MP-B solution of a mass fraction of 50 μg/kg (at a volume of 0.4 mL/20 g) every day.
The body weight changes of mice in each group were recorded every day to determine whether the acute IBD mouse model was successfully established.
A mouse colon between an anus end to an ileocecal end was integrally collected, and a length of the colon was measured; and the colon was dissected along a longitudinal axis, feces therein were rinsed off, and then the colon was stored in 4% paramethanol.
The colon sample stored in 4% paramethanol in step 1.2 was subjected to histopathological section, stained with hematoxylin-eosin (HE), and dehydrated, obtained sections were sealed and examined under an optical microscope, and the histopathological scoring was conducted by two blind examination operators:
Experimental data in the above experimental method were expressed as (x±SD), the GraphPad Prism (ver. 8.0, GraphPad Software Inc., San Diego, Calif., USA) was used to plot a chart, the SPSS Program (ver. 25.0, SPSS Inc., Chicago, Ill., USA) was used for statistical test, and one-way ANOVA or independent two-sample t-test were used for significance test when the normality and homogeneity of variances were met. It was assumed that α=0.05, and P<0.05 indicates a statistically significant difference.

Turning to “SPLGSLDGRETMYNLGGVKYLFARMDQLKKQ (SPLGSLDGRXTMYNLXGVKYLFARXDQLKKQ; Sequence is synthesized; (10)..(10) Xaa can be Arg, Phe, Glu, Thr, or absent; (16)..(16) Xaa can be Asn, Val, Leu, Gly, or absent; (25)..(25) Xaa can be Ser, Glu, Met, Arg, or absent) [MP-B]”, the “colonic histopathological observation (HE staining micrographs)” value was “no obvious inflammation”, the colonic histopathologic score was found to be 1.4±0.6 and the colon length amounted to 8.0±0.5.

B1: THTVGSYFSVQNGYVGAFSQALGNSEYAMNSPLGSLDGRTTMYNLLGVKYLFAREDQ LKKQ (peptide, listed as Lactobacillus plantarum)
chain: THTVGSYFSVQNGYVGAFSQALGNSEYAMNSPLGSLDGRTTMYNLLGVKYLFAREDQLKKQ
notes: positive control
Consider B1, for which the colonic histopathologic score was 3.1±0.2 and the colon length is given as 7.6±0.5.
